Results on eleven molecules are retold here after PubChem BioAssay (NCI).

Holding throughout (test): NCI tumour cell line growth inhibition, 48 h
In assay [1] the test system is EKVX NSCLC.
Assay [2] has as its system CCRF-CEM leukemia.
The subject of assay [3] is HS 578T breast.
Assay [4] deals with OVCAR-5 ovarian.
In assay [5] the test system is MCF7 breast.
For assay [6], the system named is UACC-257 melanoma.
The test system of assay [7] is TK-10 renal.
Assay [8] deals with SK-MEL-2 melanoma.
Assay [9] deals with SF-539 CNS.
Assay [10] concerns NCI-H226 lung.

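The compound was tested at five concentrations on cells cultured in 96-well plates, with a 48-hour exposure period. The concentration for full growth arrest is given as TGI.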

As to `CC1=NN(C(=O)CSc2nnc(SCC(=O)N3N=C(C)CC3(O)c3ccccc3)s2)C(O)(c2ccccc2)C1` (stereo not drawn), the TGI in assay [1] was more than 100 µM; in assay [2], more than 100 µM; in [3] it was 70.2 µM; in assay [4], more than 100 µM; in assay [5] it was more than 100 µM; in [6], more than 100 µM. Moreover, the TGI in assay [7] and in assay [8] was more than 100 µM throughout.

In the case of `CCOC(=O)CCCn1nnc(C(=O)OCC)c1C(=O)OCC`, the TGI in assay [1], in assay [2], in [9], in [3], in assay [5] and in [6] was more than 100 µM throughout. The TGI in [7], in assay [8] and in [10] was more than 100 µM in each case.

As to `O=C(Cn1c(=O)oc2ccc(C(=O)c3ccc(F)cc3)cc21)c1ccc([N+](=O)[O-])cc1`, the TGI was more than 100 µM in [2]; more than 100 µM in [9]; 53.5 µM in assay [3]; more than 100 µM in [4]; more than 100 µM in assay [5]; more than 100 µM in [6]. The TGI is more than 100 µM in assay [7], 86.2 µM in [8] and more than 100 µM in assay [10].

`COC(=O)[C@H](Cc1ccccc1)NC(=O)c1ccc(CNC(=O)/C=C/c2ccc(-c3ccccc3)cc2)cc1`: the TGI was more than 100 µM in assay [1]; more than 100 µM in assay [2]; 54.5 µM in assay [3]; more than 100 µM in assay [4]; more than 100 µM in assay [5]; more than 100 µM in assay [6]. For the same molecule, the TGI in [7], in assay [8] and in assay [10] was more than 100 µM each time.

As for `COc1c2cc([N+](=O)[O-])cc1CNC(=O)CN1CCOCCOCCN(CCOCCOCC1)CC(=O)NC2`, the TGI in [1], in assay [2], in assay [3], in [4], in assay [5] and in assay [6] was more than 100 µM each time. For the same molecule, the TGI in [7], in [8] and in [10] was more than 100 µM in each case.

Take `C=C(C)C(=O)CC[C@@H](C)[C@H]1[C@@H](OC2OC(CO)C(O)C(O)C2O)C[C@@]2(C)[C@@H]3C[C@H](O)C4C(C)(C)[C@@H](OC5OC(CO)C(O)C(O)C5O)CC[C@@]45C[C@@]35CC[C@]12C` (stereo partly drawn): the TGI in assay [1], in [2], in assay [9], in [3], in assay [4] and in assay [5] was more than 100 µM throughout. Further, the TGI in [6], in [7] and in assay [8] was more than 100 µM each time.

As for `CCCCNC1CCC2(SCCS2)c2[nH]c3ccccc3c21` (stereo not drawn), the TGI in assay [1] was more than 100 µM; in [2], more than 59.7 µM; in assay [9], 31.6 µM; in assay [3], more than 82.1 µM; in [4] it was more than 100 µM; in [5], 13.2 µM. The TGI in assay [6] is 15.1 µM; in [7] it was 45.1 µM; in assay [10], more than 73.7 µM.

Consider `C1=C\SS/C=C\SS/C=C\SS/C=C\SS/1`, for which the TGI in [1] was more than 100 µM; in assay [2] it was 61.9 µM; in assay [3], more than 100 µM; in [4] it was more than 100 µM; in assay [5], more than 100 µM; in assay [6], more than 100 µM. The TGI in [7], in assay [8] and in assay [10] was more than 100 µM throughout.

Consider `c1csc(-c2ccc(-c3ccc(-c4ccc(-c5cccs5)s4)s3)s2)c1`, for which the TGI in assay [1] is more than 100 µM; in assay [2], 53.8 µM; in [9], more than 100 µM; in assay [3], more than 100 µM; in assay [4] it was more than 100 µM; in [5], more than 100 µM. The TGI in [6], in assay [7] and in [10] was more than 100 µM each time.

For `CC[C@@]1(O)C(=O)OCc2c1cc1n(c2=O)Cc2c-1nc1ccccc1c2/C=N\NC(=O)C(N)CC(C)C` (stereo partly drawn), the TGI in assay [1] was more than 100 µM; in assay [2], 0.629 µM; in assay [3] it was more than 100 µM; in [4], more than 68.6 µM; in assay [5], more than 100 µM; in assay [6], 1.81 µM. In addition, the values for the TGI in assay [7], in [8] and in assay [10] were more than 100 µM, 2.99 µM and 0.975 µM, respectively.

Turning to `CN1C/C(=C\c2cccs2)C2=NC(=S)NC(c3cccs3)C2C1` (stereo not drawn), the TGI in assay [1] is more than 100 µM; in assay [2], 53.5 µM; in [3] it was more than 100 µM; in assay [4], more than 100 µM; in assay [5] it was more than 100 µM; in assay [6], more than 100 µM. Moreover, the TGI in assay [7], in assay [8] and in assay [10] was more than 100 µM each time.
